Experimental data from patent US20260028382A1, “IMMUNOGENIC PEPTIDES AND THEIR USES IN CANCER DIAGNOSIS AND THERAPY” (The Chinese University of Hong Kong, priority 2024, published 2026).

Tested on: CD8+ T cells
Test: IFN-γ ELISpot assay of peptide immunogenicity (peptide-pulsed DC:CD8+ T cell co-culture)
Type: cell-based, human
Source text: We obtained peripheral mononuclear cells (PBMCs) from healthy donor buffy coat samples via density gradient centrifugation. We utilized QIAamp DNA Blood Kits (Qiagen) to isolate DNA for HLA typing with LinkSeq™ HLA-ABCDRDQDP+ 384 Kit (One Lambda) on a QuantStudio™ 7 Flex Real-Time PCR System. Human T and dendritic cells (DCs) were enriched from PBMCs using a CD8 cell isolation kit and Pan-DC enrichment kit (Miltenyi Biotec), respectively, and subsequently cultured in RPMI-1640 medium (Life Technologies) supplemented with 10% FBS and 100 U/mL of Penicillin-Streptomycin.
Dendritic cells (DCs) were pulsed with a 10 μg mL^−1 peptide concentration at a cell density of 10^5 cells/mL for 4 hours at 37° C. Following this, the DCs were mixed with autologous CD8+ T cells at a DC:T cell ratio of 1:10. The cell mixture was then aliquoted into an ELISpot plate at 100 μL per well and incubated for 24 hours. The secreted IFN-γ signal was detected using the ELISpot Plus Human IFN-γ (ALP) kit (Mabtech). […]
We utilized ELISpot assay, which quantifies cytokine IFN-γ releasing by CD8^+ T lymphocytes isolated from PBMCs of healthy subjects, to verify the immunogenic potential of candidate peptides. […] We co-cultured pan-DCs loaded with the candidate peptides with autologous CD8′ T cells for 24 hours and assessed the secretion of IFN-γ as an indicator of T-cell activation and immunogenicity.

STIHLASQFTK (Description of sequence: non-canonical peptide, associated gene: CRYBG1, classification: CDS (frame-shift), short form name: p9; listed as Homo sapiens)
immunogenicity demonstrated in the ELISpot analysis: strong immunogenicity

MCDEDETTA [Actin1-9, peptide derived from human Actin within the amino acid region 1-9, negative control]
T cell response (IFN-γ secretion) (peptide concentration of 1 ug mL^−1, DC:CD8+ T cell co-culture, 24 hours, healthy donors): negligible response
